Experimental data from patent US20250221936A1, “ENGINEERED HEMICHANNELS, ENGINEERED VESICLES, AND USES THEREOF” (VIRGINIA TECH INTELLECTUAL PROPERTIES, INC., priority 2018, published 2025).
“Also recorded” adds a separate entry of the source. Read-outs that look alike come from different tables or passages of the source.

Experiments:
[1] = tested on: ARPE19 cell (immortalized human RPE cells) monolayers; settings: pre-treatment, cited from earlier work
[2] = aqueous solutions; cited from earlier work
GST-Cx43 CT = molecular target: T1, GST-Cx43 CT (Rattus norvegicus, UniProt P08050); assay: EDC cross-linking of kinase reaction mixtures, Cx43 CT; format: binding; settings: 5, 10 and 25 μM
T1 construct: pGEX-6-P2 Cx43 CT amino acids 255-382; made in house; host or cells: E. coli BL21
T1 sequence (P08050 255-382): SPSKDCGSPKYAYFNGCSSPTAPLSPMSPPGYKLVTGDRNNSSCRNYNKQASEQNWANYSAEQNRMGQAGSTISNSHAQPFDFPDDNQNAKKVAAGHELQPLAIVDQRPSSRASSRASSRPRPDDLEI
Description: To characterize the interaction between the Cx43 CT substrate and peptides, the in vitro kinase assay was performed as above with modification and the constituents then subjected to a cross-linking reaction. The assay buffer used was 20 mM 3-(N-morpholino) propanesulfonic acid (MOPS), pH 7.2. All other reagents present in the kinase reaction were maintained as described above. The reaction was allowed to proceed at 37° C. for 15 minutes. Afterwards, the carbodiimide crosslinker 1-Ethyl-3-(3-dimethylaminopropyl) carbodiimide HCl (EDC) (Thermo, 22980) was added to each solution for a final concentration of 20 mM. The solution was allowed to cross-link for one hour at room temperature. The reaction was stopped by the addition of 4×LDS loading buffer, boiled for 5 minutes and subsequently separated by PAGE. The resulting gel was stained in Coomassie brilliant blue (Sigma, B0770) for two hours and destained in a solution of 4% methanol 7% acetic acid overnight. Gel bands were subsequently excised for mass spectrometric analysis. For the direct interaction between protein and peptides, PBS, pH 7.5 was used as the coupling buffer. The protein (50 μg/ml) and peptide (25 μM) were allowed to react at room temperature for one hour before EDAC was added to the reaction mixture. The reaction was Western blotted for Cx43, GST or NeutroAvidin. […]

cryo-injured LV wall = settings: cited from earlier work; for LV function: 8 week time course; for Cx43 in myocytes bordering the injury: mouse, in vivo; for arrhythmias: pacing and S1-S2 protocols
Cx43 Y313-A348 peptide = assay: SPR of captured aCT1 with Cx43 Y313-A348 peptide; format: binding; settings: disulfide linked Cx43 Y313-A348 (25 µM)
Description: FIGS. 28A-28D. […] (FIG. 28B) Schematic representation of the Cx43 Y313-A348 peptide synthesized for a binding surface surrogate 1 with linkable cysteine (Cys) on the amino terminus and CT. (FIG. 28C) Single letter amino acid sequence of Cx43 Y313-A348 peptide with predicted helix secondary structure underlined. (FIG. 28D) Surface Plasmon Resonance (SPR) analysis of substrate captured aCT1 (700-1000 RUs) binding recombinant Cx43 CT (100 µM, light grey), unlinked Cx43 Y313-A348 peptide (25 µM, black), and disulfide linked Cx43 Y313-A348 (25 µM, dark grey). […] Disulfide cross-linking Cx43 Y313-A348 into a looped conformation results in a loss of aCT1 binding, thus aCT1 interaction with this peptide requires a degree conformational flexibility. Cx43 Y313-A348 peptide can provide an assay for screening for novel Cx43 interacting drugs.
A […] peptide mimetic encompassing amino acids Y313 through A348 of the Cx43 CT was synthesized, containing the H1 and H2 a-helical regions (FIGS. 28A-28D). […] Cx43 Y313-A348 was designed to have cysteines at its NT and CT, which were used to disulfide cross-link the peptide into a cyclized conformation (FIG. 28B). […]

heart allograft = settings: 100 μM in UW solution, cited from earlier work
GST-Cx43 CT QQ/KK = molecular target: T2, GST-Cx43 CT QQ/KK (Rattus norvegicus, UniProt P08050, K345Q/K346Q); assay: EDC cross-linking, Cx43 CT QQ/KK mutant substrate; format: binding; settings: 5, 10 and 25 μM
T2 construct: pGEX-6-P2 Cx43 CT amino acids 255-382; made in house; host or cells: E. coli BL21
T2 sequence (P08050 255-382 K345Q/K346Q): as the sequence (P08050 255-382) above, with K91Q, K92Q counted along it
Description: To characterize the interaction between the Cx43 CT substrate and peptides, the in vitro kinase assay was performed as above with modification and the constituents then subjected to a cross-linking reaction. The assay buffer used was 20 mM 3-(N-morpholino) propanesulfonic acid (MOPS), pH 7.2. All other reagents present in the kinase reaction were maintained as described above. The reaction was allowed to proceed at 37° C. for 15 minutes. Afterwards, the carbodiimide crosslinker 1-Ethyl-3-(3-dimethylaminopropyl) carbodiimide HCl (EDC) (Thermo, 22980) was added to each solution for a final concentration of 20 mM. The solution was allowed to cross-link for one hour at room temperature. The reaction was stopped by the addition of 4×LDS loading buffer, boiled for 5 minutes and subsequently separated by PAGE. The resulting gel was stained in Coomassie brilliant blue (Sigma, B0770) for two hours and destained in a solution of 4% methanol 7% acetic acid overnight. Gel bands were subsequently excised for mass spectrometric analysis. For the direct interaction between protein and peptides, PBS, pH 7.5 was used as the coupling buffer. The protein (50 μg/ml) and peptide (25 μM) were allowed to react at room temperature for one hour before EDAC was added to the reaction mixture. The reaction was Western blotted for Cx43, GST or NeutroAvidin.

[3] = 0.05% Brij-78, corneal application, cited from earlier work; for peptide in aqueous humor / peptide in vitreous humor: 20 and 40 minutes
Cx43-Hela cells = assay: Cx43 and ZO-1 immunofluorescent labeling; format: cell-based; settings: 10 μM for 2, 4, 24, or 48 hours
Description: Given that the 10UM concentration of peptide was not toxic to cells, the inventors treated Cx43-Hela cells with 10 μM JM1 or JM2 for 2, 4, 24, or 48 hours followed by fixation and immunofluorescent labeling of Cx43 and ZO-1. Said peptides can be loaded into the provided EVs and can elicit results similar to those observed for naked peptide as follows. […] However, the most striking effects were on ZO-1 organization. In control cells ZO-1 localized to cell borders, often at sites of small, finger-like projections between the cells. Cytoplasmic ZO-1 was also notable. In JM-treated cells a strong contrast in the ratio of cell border to cytoplasmic ZO-1 was found, with relative levels at cell borders being increased over controls. […] There was also a noticeable increase in the number of cells per area of field, supporting the earlier observation that JM2 treated cells appeared to proliferate and survive at an increased rate.

RQPKIWFPNRRKPWKKRPRPDDLEI [alpha CT1]
VEGF-induced deterioration of TER [1]: prevent VEGF-induced deterioration of TER | VEGF-induced deterioration of TER ([1]; listed as ACTI): blocked by pre-treating the cells with the ACTI peptide | period of slow release of detectable levels of peptide [2]: at least 7 days | EDC cross-linking to Cx43 CT (GST-Cx43 CT): covalently linked by EDC to Cx43 CT in a concentration-dependent manner | LV function (cryo-injured LV wall): sustained improvements in ventricular contractile performance over an 8-week study period | LV function (cryo-injured LV wall; listed as ACTI): significant improvement in LV diastolic and systolic function | Cx43 in myocytes bordering the injury (cryo-injured LV wall): reduced Cx43 GJ remodeling in injury border zone tissues | Cx43 in myocytes bordering the injury (cryo-injured LV wall; listed as ACTI): higher and more uniform, intercalated-disk-localized and pS368 phosphorylated Cx43 | arrhythmias (cryo-injured LV wall): decreased propensity of the injured hearts to develop inducible arrhythmias | arrhythmias (cryo-injured LV wall; listed as ACTI): dramatically reduced (p<0.05) frequency and severity of arrhythmias | SPR interaction (Cx43 Y313-A348 peptide): complete loss of aCT1 binding | Evan's Blue sequestration into the transplanted heart (heart allograft; 6 h at 4° C., 30 mins post reperfusion): significantly reduces Evan's Blue sequestration into the transplanted heart | graft injury, serum cardiac troponin I, neutrophils (heart allograft; 6 hrs at 4° C.): significantly reduced cardiac injury, reduced serum cardiac troponin I and significantly reduced neutrophils | EDC cross-linking to Cx43 CT QQ/KK mutant substrate (GST-Cx43 CT QQ/KK): no evidence of cross-linking | peptide in aqueous humor [3]: detectable level of ACT1 in the internal fluids of the anterior chamber | peptide in vitreous humor [3]: Lower levels of ACT1 could also be detected | peptide in aqueous humor ([3]; listed as ACTI): detectable level of ACTI in the internal fluids of the anterior chamber | peptide in vitreous humor ([3]; listed as ACTI): Lower levels of peptide could also be detected | peptide in retinal pigment epithelial layer [3]: ACT1 was detectable in the retinal pigment epithelial layer | peptide in retinal pigment epithelial layer ([3]; listed as ACTI): peptide was detectable in the retinal pigment epithelial layer

VFFKGVKDRVKGRSD [JM2]
Cx43 and ZO-1 localization (Cx43-Hela cells): greater cytoplasmic Cx43 was observed; also recorded: well defined cell-cell interfaces
